Columns and labels:
ghrelin secretion = conditions: cited from earlier work
[1] = Method validation: stability in blood
[2] = Method validation: post-preparative stability (autosampler); conditions: autosampler set at 4°C
[3] = Method validation: long-term stability in plasma
[4] = Dose proportionality (linearity) test by power model for C max and AUC0-last; conditions: for Dose proportionality test using power model, Inference: linear when 90% CI of β included 1, CIlower ≥0.8, and CIupper ≤1.25; for Dose proportionality test using power model, β: rikkunshito 2.5, 5.0 or 7.5 g
Description: The dose proportionality was analyzed via a power model [21, 22]. […] Evaluation of linearity of the dosage-exposure relationship was conducted with Phoenix WinNonlin and SAS 9.2 (SAS Institute, Inc., Cary, NC).

[5] = Method validation: stability in standard, stock and working solution; conditions: for Stock solution stability, RR: 0.1 mg/mL (naringenin 0.5 mg/mL)
5-HT2BR = test system: 5-HT2BR; parameters: method as in PMID 18439428; conditions: cited from earlier work
[6] = Formation of ingredients derived from rikkunshito in formulation, blood, and urine (S11 Table summary); conditions: after rikkunshito administration, per ingredient in the formulation; for Formation of ingredients: form found in Urine: BQL = below the quantification limit
[7] = test system: cisplatin-induced anorexia model; conditions: oral administration; cisplatin-induced anorexia model; cited from earlier work
[8] = 7.5 g dosage; cited from earlier work
[9] = Stability of ingredients in gastric pH solution (pH 1.2, 37°C); format: physicochemical; conditions: pH 1.2
Description: Rikkunshito gradually dissolved in acidic solution (pH 1.2) at 37°C, and the concentration of atractylodin after adding 0.25, 0.5, 1, and 2 h was measured by gas chromatography–mass spectrometry.

[10] = Exploratory trial: ingredients in β-glucuronidase (enzyme)-treated plasma; format: in vivo, human; conditions: β-glucuronidase-treated, rikkunshito 7.5 g, mean ± S.D., n = 4
Description: In the first exploratory trial, 20-mL blood samples were collected from the cutaneous vein in the subjects’ forearm via a blood sampling tube that contained heparin at 0 (preadministration), 0.5, 1, 2, 4, and 8 h after a single oral administration of rikkunshito (Lot E24652). The dose of rikkunshito used in this trial was 7.5 g/day, which is the clinical daily dose, to widely explore rikkunshito-derived ingredients that enter the blood. Along with plasma, urine samples were collected at three points: between dinner and bedtime (preadministration), between 0 and 4 h after administration, and between 4 and 8 h after administration. The blood was immediately centrifuged at 1700 ×g for 10 min to obtain plasma. Plasma and urine fractions were stored at −80°C or lower until analysis.
For quantification of 30 ingredients other than atractylodin and synephrine, 25 µL of standard solution or methanol was added to 500 µL plasma or urine samples followed by mixing. Atractylenolide III or digoxin (IS) solution (50 μL) was added to the solutions followed by mixing. For urine, 400 µL of blank plasma was added to the solutions. Ammonium acetate solution (100 mM, 100 or 400 µL) was added to the solutions followed by mixing. For enzymatic treatment, plasma and urine samples were incubated with β-glucuronidase (100 units in 100 mM ammonium acetate) for 2 h at 37°C. A solid-phase cartridge (OASIS HLB, 30 mg/1cc, Waters) was conditioned with methanol and 10 mM ammonium acetate solution, and the samples were loaded onto the cartridge. The cartridge was washed water : methanol (9:1, v/v), and 1.5 mL of methanol and 30 µL of propylene glycol were added to the cartridge to elute the analytes. The mixtures were dried at 25°C under a stream of nitrogen gas. Furthermore, 100 μL of 10 mM ammonium acetate : methanol (8:2, v/v) was added to the dried samples followed by mixing and sonication. The solutions were filtered (0.22 µm) and followed by injection into the LC–MS/MS system. […] Those analytical conditions are summarized in S2 Table and S3 Table.

[11] = Exploratory trial: amount of rikkunshito ingredients in urine; format: in vivo, human; conditions: mean ± S.D., n = 4; for Amount in urine, 4–8 h: 4–8 h after single oral rikkunshito 7.5 g
Outline: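 Subjects took single oral 7.5 g rikkunshito; urine collected pre-dose and 0–4 h and 4–8 h post-dose, stored at −80 °C or lower. Synephrine quantified by LC–MS/MS after plate cleanup with erythromycin IS; other ingredients after β-glucuronidase (2 h, 37 °C) and HLB solid-phase extraction.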

[12] = on ice 2 h, higher concentration (800 / 320 / 4000 pg/mL)
[13] = on ice 2 h, lower concentration (20 / 8 / 100 pg/mL)
[14] = 48 h, higher concentration (800 / 320 / 4000 pg/mL)
[15] = 48 h, lower concentration (20 / 8 / 100 pg/mL)
[16] = refrigerator 128 days, higher concentration (10 / 4 / 50 ng/mL)
[17] = refrigerator 128 days, lower concentration (0.1 / 0.04 / 0.5 ng/mL)
[18] = refrigerator (1°C to 8°C) 54 days
[19] = refrigerator (1°C to 8°C) 129 days

Compound	Stability in blood, RR [1, 12] [%]	Stability in blood, RR [1, 13] [%]	Post-preparative stability, RR [2, 14] [%]	Post-preparative stability, RR [2, 15] [%]	Dose proportionality test using power model, Inference ([4]; AUC0-last)	Dose proportionality test using power model, β ([4]; AUC0-last)	Dose proportionality test using power model, Inference ([4]; Cmax)	Dose proportionality test using power model, β ([4]; Cmax)	Working solution stability, RR [5, 16] [%]	Working solution stability, RR [5, 17] [%]	Stock solution stability, RR [5, 18]	Stock solution stability, RR [5, 19]	5-HT2BR inhibitory/antagonistic activity (5-HT2BR)	Formation of ingredients: form found in Blood [6]	Formation of ingredients: form found in Urine [6]	Maximum plasma concentration in the preliminary pharmacokinetics study [8] [ng/mL]	Stability in gastric pH solution, Quantitative value ([9]; 0.5 h) [ng/mL]	Stability in gastric pH solution, Quantitative value ([9]; 1 h) [ng/mL]	Stability in gastric pH solution, Quantitative value ([9]; 2 h) [ng/mL]	also measured
COc1ccc(-c2oc3c(OC)c(OC)c(OC)c(OC)c3c(=O)c2OC)cc1OC [Heptamethoxyflavone, 3,3′,4′,5,6,7,8-heptamethoxyflavone]	92.3	97.5	90.8	96.5	Nonlinear	0.804	Nonlinear	0.817	98.8	101.6	54 days: 98.7%	129 days: 92.7%	most potent 5-HT2BR antagonistic activity among all rikkunshito ingredients	Heptamethoxyflavone	BQL	0.253 ± 0.301	25.5	30.7	28.7	Known pharmacology activities: ghrelin secretion (ghrelin secretion): Ghrelin secretion promoting activity [14, 15]; Stability in blood, RR ([1]; room temperature 2 h, higher concentration (pachymic acid 800, heptamethoxyflavone 320, naringenin 4000 pg/mL)): 96.0%; Stability in blood, RR ([1]; room temperature 2 h, lower concentration (pachymic acid 20, heptamethoxyflavone 8, naringenin 100 pg/mL)): 107.1%; Post-preparative stability, RR ([2]; 24 h, higher concentration (pachymic acid 800, heptamethoxyflavone 320 pg/mL)): 86.3%; Post-preparative stability, RR ([2]; 24 h, lower concentration (pachymic acid 20, heptamethoxyflavone 8 pg/mL)): 100.3%; Long-term stability, RR ([3]; freezer −30°C to −10°C, 13 days, lower concentration (pachymic acid 20, heptamethoxyflavone 8 pg/mL)): 90.3%; Long-term stability, RR ([3]; freezer, 13 days, higher concentration (pachymic acid 800, heptamethoxyflavone 320 pg/mL)): 113.1%; Long-term stability, RR ([3]; freezer, 39 days, higher concentration (800 / 320 pg/mL)): 99.7%; Long-term stability, RR ([3]; freezer, 39 days, lower concentration (20 / 8 pg/mL)): 85.5%; Long-term stability, RR ([3]; freezer, 228 days, higher concentration (800 / 320 pg/mL)): 87.5%; Long-term stability, RR ([3]; freezer, 228 days, lower concentration (20 / 8 pg/mL)): 85.0%; Working solution stability, RR ([5]; refrigerator 53 days, higher concentration (pachymic acid 10, heptamethoxyflavone 4, naringenin 50 ng/mL)): 100.4%; Working solution stability, RR ([5]; refrigerator 53 days, lower concentration (pachymic acid 0.1, heptamethoxyflavone 0.04, naringenin 0.5 ng/mL)): 109.3%; Acylated ghrelin level in blood [7]: suppressed the decrease of the acylated ghrelin level in blood in a concentration-dependent manner
O=C1C[C@@H](c2ccc(O)cc2)Oc2cc(O)cc(O)c21 [Naringenin]	98.1	95.8	87.1	85.6	Nonlinear	1.02	Nonlinear	1.06	99.8	102.6	54 days: 97.5%	129 days: 96.7%	most potent 5-HT2BR antagonistic activity among all rikkunshito ingredients	Naringenin Conjugate metabolites of naringenin^a	Naringenin	0.162 ± 0.0392	2030	2140	1990	concentration at 0.5 h ([10]; human, plasma, oral, 0.5 h): 0.311 ± 0.211 ng/mL; concentration at 1 h ([10]; human, plasma, oral, 1 h): 0.261 ± 0.188 ng/mL; concentration at 2 h ([10]; human, plasma, oral, 2 h, read-out: Plasma concentration in enzyme-treated plasma, 2 h): 0.351 ± 0.311 ng/mL; concentration at 4 h ([10]; human, plasma, oral, 4 h, read-out: Plasma concentration in enzyme-treated plasma, 4 h): 0.861 ± 0.749 ng/mL; concentration at 8 h ([10]; human, plasma, oral, 8 h, read-out: Plasma concentration in enzyme-treated plasma, 8 h): 0.156 ± 0.234 ng/mL; Plasma concentration in enzyme-treated plasma, 0 h ([10]; 0 h (preadministration)): BQL; Post-preparative stability, RR ([2]; naringenin 100 pg/mL, 25 h as printed in the cell): 91.7%; Post-preparative stability, RR ([2]; naringenin 4000 pg/mL, 25 h as printed in the cell): 96.7%; Amount in urine, 0–4 h ([11]; 0–4 h after single oral rikkunshito 7.5 g): BQL; Amount in urine, 4–8 h [11]: 2380 ± 2940 ng; Amount in urine, 4–8 h ([11]; listed as naringenin): 2,380 ng; Amount in urine, Pre ([11]; preadministration (between dinner and bedtime)): BQL; Long-term stability, RR ([3]; naringenin 100 pg/mL, freezer −30°C to −10°C, 22 days): 101.9%; Long-term stability, RR ([3]; naringenin 100 pg/mL, freezer, 31 days): 98.1%; Long-term stability, RR ([3]; naringenin 100 pg/mL, freezer, 220 days): 86.8%; Long-term stability, RR ([3]; naringenin 4000 pg/mL, freezer, 22 days): 95.8%; Long-term stability, RR ([3]; naringenin 4000 pg/mL, freezer, 31 days): 95.8%; Long-term stability, RR ([3]; naringenin 4000 pg/mL, freezer, 220 days): 85.2%
